Source: patent US20230219904A1 (SYNGENTA CROP PROTECTION AG, priority 2020, published 2023)

Assays:
Format in all cases: in vivo
[1] = tested on: Abutilon theophrasti (ABUTH); test: Pre-emergence herbicidal glasshouse test (Table B1); details: evaluated after 13 days
Outline: (§1)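 Spraying at 500 g/h unless indicated occurs either one day after sowing (pre-emergence) or after 8 days of cultivation (post-emergence). Percentage damage is then assessed after 13 days and binned as 5=80-100%, 4=60-79%, 3=40-59%, 2=20-39%, 1=0-19%.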

[2] = tested on: Amaranthus retoflexus (AMARE); test: as above; details: evaluated after 13 days
Outline: as §1

[3] = tested on: Echinochloa crus-galh (ECHCG); test: as above; details: evaluated after 13 days
Outline: as §1

[4] = tested on: Ipomoea hederacea (IPOHE); test: as above; details: evaluated after 13 days
Outline: as §1

[5] = tested on: Setaria faberi (SETFA); test: as above; details: applied at 500 g/h, evaluated after 13 days
Outline: as §1

[6] = tested on: Abutilon theophrasti (ABUTH); test: Post-emergence herbicidal glasshouse test (Table B1); details: evaluated after 13 days
Outline: as §1

[7] = tested on: Amaranthus retoflexus (AMARE); test: as above; details: evaluated after 13 days
Outline: as §1

[8] = tested on: Echinochloa crus-galh (ECHCG); test: as above; details: evaluated after 13 days
Outline: as §1

[9] = tested on: Ipomoea hederacea (IPOHE); test: as above; details: evaluated after 13 days
Outline: as §1

[10] = tested on: Setaria faberi (SETFA); test: as above; details: evaluated after 13 days
Outline: as §1

Row | SMILES | PRE Application ABUTH, percentage damage on five-point scale ([1]; applied at 500 g/h) | PRE Application AMARE, percentage damage on five-point scale ([2]; applied at 500 g/h) | PRE Application ECHCG, percentage damage on five-point scale ([3]; applied at 500 g/h) | PRE Application IPOHE, percentage damage on five-point scale ([4]; applied) | PRE Application SETFA, percentage damage on five-point scale [5] | POST Application ABUTH, percentage damage on five-point scale ([6]; applied at 500 g/h) | POST Application AMARE, percentage damage on five-point scale ([7]; applied at 500 g/h) | POST Application ECHCG, percentage damage on five-point scale ([8]; applied at 500 g/h) | POST Application IPOHE, percentage damage on five-point scale ([9]; applied at 500 g/h) | POST Application SETFA, percentage damage on five-point scale ([10]; applied at 500 g/h) | PRE Application ABUTH, percentage damage on five-point scale ([1]; applied at 125 g/ha) | PRE Application AMARE, percentage damage on five-point scale ([2]; applied at 125 g/ha) | PRE Application ECHCG, percentage damage on five-point scale ([3]; applied at 125 g/ha) | PRE Application IPOHE, percentage damage on five-point scale ([4]; applied at 125 g/ha) | POST Application ABUTH, percentage damage on five-point scale ([6]; applied at 125 g/ha) | POST Application AMARE, percentage damage on five-point scale ([7]; applied at 125 g/ha) | POST Application ECHCG, percentage damage on five-point scale ([8]; applied at 125 g/ha) | POST Application IPOHE, percentage damage on five-point scale ([9]; applied at 125 g/ha) | POST Application SETFA, percentage damage on five-point scale ([10]; applied at 125 g/ha)
1 | CN(C)c1c(OC(F)(F)F)ccc(C(=O)Nc2nnnn2C)c1Cl [Compound 1.001] | 5 (5=80-100%) | 5 (5=80-100%) | 5 (5=80-100%) | 5 (5=80-100%) | 5 (5=80-100%) | 5 (5=80-100%) | 5 (5=80-100%) | 5 (5=80-100%) | 5 (5=80-100%) | 5 (5=80-100%) | – | – | – | – | – | – | – | – | –
2 | CC(=O)N(C)c1c(OC(F)(F)F)ccc(C(=O)Nc2nnnn2C)c1Cl [Compound 1.003] | 5 (5=80-100%) | 5 (5=80-100%) | 5 (5=80-100%) | 1 (1=0-19%) | 5 (5=80-100%) | 5 (5=80-100%) | 5 (5=80-100%) | 5 (5=80-100%) | 5 (5=80-100%) | – | – | – | – | – | – | – | – | – | –
3 | CNc1c(OC(F)(F)F)ccc(C(=O)Nc2nnnn2C)c1Cl [Compound 1.005] | 5 (5=80-100%) | 5 (5=80-100%) | 5 (5=80-100%) | 5 (5=80-100%) | 5 (5=80-100%) | 5 (5=80-100%) | 5 (5=80-100%) | 5 (5=80-100%) | 5 (5=80-100%) | 5 (5=80-100%) | – | – | – | – | – | – | – | – | –
4 | Cn1nnnc1NC(=O)c1ccc(OC(F)(F)F)c(NC(=O)C2CC2)c1Cl [Compound 1.006, 2-chloro-3-(cyclopropanecarbonylamino)-N-(1-methyltetrazol-5-yl)-4-(trifluoromethoxy)benzamide] | 5 (5=80-100%) | 5 (5=80-100%) | 5 (5=80-100%) | 2 (2=20-39%) | 5 (5=80-100%) | 5 (5=80-100%) | 5 (5=80-100%) | 5 (5=80-100%) | 5 (5=80-100%) | 5 (5=80-100%) | – | – | – | – | – | – | – | – | –
5 | CC(C)CC(=O)Nc1c(OC(F)(F)F)ccc(C(=O)Nc2nnnn2C)c1Cl [Compound 1.008] | 5 (5=80-100%) | 5 (5=80-100%) | 5 (5=80-100%) | 3 (3=40-59%) | 4 (4=60-79%) | 5 (5=80-100%) | 5 (5=80-100%) | 5 (5=80-100%) | 5 (5=80-100%) | 5 (5=80-100%) | – | – | – | – | – | – | – | – | –
6 | CC(F)C(=O)Nc1c(OC(F)(F)F)ccc(C(=O)Nc2nnnn2C)c1Cl (centres unmarked) [Compound 1.009] | 5 (5=80-100%) | 5 (5=80-100%) | 1 (1=0-19%) | 4 (4=60-79%) | 5 (5=80-100%) | 5 (5=80-100%) | 5 (5=80-100%) | 5 (5=80-100%) | 5 (5=80-100%) | 5 (5=80-100%) | – | – | – | – | – | – | – | – | –
7 | Cc1ncc(C(=O)Nc2c(OC(F)(F)F)ccc(C(=O)Nc3nnnn3C)c2Cl)s1 [Compound 1.010] | 5 (5=80-100%) | 5 (5=80-100%) | 1 (1=0-19%) | 2 (2=20-39%) | 2 (2=20-39%) | 5 (5=80-100%) | – | 5 (5=80-100%) | 5 (5=80-100%) | 5 (5=80-100%) | – | – | – | – | – | – | – | – | –
8 | Cc1cc(C(=O)Nc2c(OC(F)(F)F)ccc(C(=O)Nc3nnnn3C)c2Cl)no1 [Compound 1.011] | 4 (4=60-79%) | 5 (5=80-100%) | 1 (1=0-19%) | 4 (4=60-79%) | 1 (1=0-19%) | 5 (5=80-100%) | 5 (5=80-100%) | 5 (5=80-100%) | 5 (5=80-100%) | 4 (4=60-79%) | – | – | – | – | – | – | – | – | –
9 | CCn1nnnc1NC(=O)c1ccc(OC(F)(F)F)c(NC(C)=O)c1Cl [Compound 1.015] | 5 (5=80-100%) | 5 (5=80-100%) | 4 (4=60-79%) | 1 (1=0-19%) | 2 (2=20-39%) | 5 (5=80-100%) | 5 (5=80-100%) | 5 (5=80-100%) | 5 (5=80-100%) | 5 (5=80-100%) | – | – | – | – | – | – | – | – | –
10 | CC(F)C(=O)Nc1c(OCC(F)(F)F)ccc(C(=O)Nc2nnnn2C)c1Cl (centres unmarked) [Compound 1.016, 2-chloro-3-(2-fluoropropanoylamino)-N-(1-methyltetrazol-5-yl)-4-(2,2,2-trifluoroethoxy)benzamide] | 5 (5=80-100%) | 5 (5=80-100%) | 5 (5=80-100%) | 5 (5=80-100%) | 5 (5=80-100%) | 5 (5=80-100%) | 5 (5=80-100%) | 5 (5=80-100%) | 5 (5=80-100%) | 5 (5=80-100%) | – | – | – | – | – | – | – | – | –
11 | CCC(C)C(=O)Nc1c(OC(F)(F)F)ccc(C(=O)Nc2nnnn2C)c1Cl (centres unmarked) [Compound 1.055] | – | – | – | – | – | – | – | – | – | – | 5 (5=80-100%) | 5 (5=80-100%) | 5 (5=80-100%) | 4 (4=60-79%) | 5 (5=80-100%) | 5 (5=80-100%) | 5 (5=80-100%) | 4 (4=60-79%) | 5 (5=80-100%)
